The target of one data set is T1, Adenosine receptor A1 (Rattus norvegicus, UniProt P25099).
T1 sequence (P25099 whole entry): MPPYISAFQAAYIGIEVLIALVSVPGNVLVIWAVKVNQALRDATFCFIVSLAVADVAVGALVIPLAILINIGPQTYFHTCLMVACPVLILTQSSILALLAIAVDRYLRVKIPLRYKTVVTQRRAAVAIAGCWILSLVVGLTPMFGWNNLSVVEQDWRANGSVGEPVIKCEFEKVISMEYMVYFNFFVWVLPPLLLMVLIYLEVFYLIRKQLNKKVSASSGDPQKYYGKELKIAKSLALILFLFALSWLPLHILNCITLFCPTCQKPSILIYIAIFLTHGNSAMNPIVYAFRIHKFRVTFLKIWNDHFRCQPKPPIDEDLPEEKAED
The data set is described as follows: Inhibitory activity against Adenosine A1 Receptor using [3H]CHA in rat cortical membranes. Type of data set: cell membranes.

The next data set addresses Adenosine receptor A2a (Rattus norvegicus, UniProt P30543). The data set is described as follows: Inhibitory activity against Adenosine A2a receptor using [3H]NECA in rat striatal membranes. The data set is classed as cell membranes, Striatum, Membrane.
A short description of data set [1]: Water solubility was measured. Type of data set: ADME.

Bounds are passed on as bounds.

For orientation: IC50 means the concentration that inhibits the measured activity by half. A low value points to greater potency in that assay. A word on the solubility: it is the dissolved amount per volume that the medium holds. High values mean a readily soluble substance, low ones a poorly soluble substance.

Sequence of Adenosine receptor A2a (P30543 whole entry): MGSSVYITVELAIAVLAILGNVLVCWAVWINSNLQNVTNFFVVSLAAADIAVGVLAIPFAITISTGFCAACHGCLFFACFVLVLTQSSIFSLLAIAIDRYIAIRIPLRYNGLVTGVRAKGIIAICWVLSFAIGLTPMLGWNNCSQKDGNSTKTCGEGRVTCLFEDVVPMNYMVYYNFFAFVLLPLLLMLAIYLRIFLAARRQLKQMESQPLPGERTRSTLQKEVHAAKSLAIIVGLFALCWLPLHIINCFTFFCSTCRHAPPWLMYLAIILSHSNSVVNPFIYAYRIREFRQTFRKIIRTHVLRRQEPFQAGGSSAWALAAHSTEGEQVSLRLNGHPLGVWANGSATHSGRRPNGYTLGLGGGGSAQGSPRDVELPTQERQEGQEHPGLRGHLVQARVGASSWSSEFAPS

Take `O=C(O)CCCn1nc(-c2c(-c3ccccc3)nn3ccccc23)ccc1=O`: the results for the IC50 on Adenosine receptor A1 and against Adenosine receptor A2a were 0.12 µM and 5.9 µM, respectively.

On to `O=C(O)CC1=C(n2nc(-c3c(-c4ccccc4)nn4ccccc34)ccc2=O)CCCC1`, for which the IC50 came out at 0.015 µM at Adenosine receptor A1 and 6.2 µM against Adenosine receptor A2a.

Regarding `O=C(O)C[C@@H]1CCCC[C@H]1n1nc(-c2c(-c3ccccc3)nn3ccccc23)ccc1=O`, the IC50 against Adenosine receptor A1 stood at 0.0036 µM; against Adenosine receptor A2a, 0.1 µM.

Turning to `O=C(/C=C/c1c(-c2ccccc2)nn2ccccc12)N1CCCC[C@@H]1CCO` [FK453], the IC50 on Adenosine receptor A1 was found to be 0.017 µM; on Adenosine receptor A2a it was 11 µM.

In data set [1], `O=C([O-])CC1=C(n2nc(-c3c(-c4ccccc4)nn4ccccc34)ccc2=O)CCCC1.[Na+]` came in with a solubility greater than 200000 µg/mL.

In the case of `O=C(O)CC1=C(n2nc(-c3c(-c4ccccc4)nn4ccccc34)ccc2=O)CCCCC1`, the IC50 against Adenosine receptor A1 came to 0.016 µM; on Adenosine receptor A2a, 5.5 µM.

As to `O=C([O-])CCCn1nc(-c2c(-c3ccccc3)nn3ccccc23)ccc1=O.[Na+]`, the solubility in data set [1] was found to be 10000 µg/mL.

As for `O=C(O)CC1=C(n2nc(-c3c(-c4ccccc4)nn4ccccc34)ccc2=O)CCC1`, the IC50 amounted to 0.011 µM on Adenosine receptor A1 and 0.84 µM against Adenosine receptor A2a.

As to `O=C(O)C[C@H]1CCCC[C@H]1n1nc(-c2c(-c3ccccc3)nn3ccccc23)ccc1=O`, the IC50 at Adenosine receptor A1 was determined as 0.034 µM; on Adenosine receptor A2a, 5.5 µM.

Values taken from ChEMBL document CHEMBL1131793, “Discovery of FR166124, a novel water-soluble pyrazolo-[1,5-a]pyridine adenosine A1 receptor antagonist” (Bioorg Med Chem Lett, 1999).
